# Key:
# [1] = biological target: T1, S2R (Homo sapiens, UniProt Q5BJF2); assay: S2R binding assay, [3H]-DTG, Jurkat cell membranes
# T1 construct: host or cells: Jurkat cell membranes
# Experimental: The binding assays were performed by Eurofins Cerep (Poitiers, France) according to Ganapathy. Briefly, S1R)binding assay was carried out by incubating Jurkat cell membranes ([…] protein per tube) with [^3H] (+)-pentazocine (15 nM) and a range of concentrations of test compounds at 37 °C for 2 h in 5 mM Tris HCl buffer (pH = 7.4). The S2R binding assay was performed by incubating Jurkat cell membranes ([…] protein per tube) with [^3H]-DTG (25 nM) in the presence of (+)-pentazocine (1 mM), to saturate S1R, and a range of concentrations of test compounds at room temperature for 1 h in 5 mM Tris HCl buffer (pH = 7.4). Bound radioactivity was measured using liquid scintillation counting. Nonspecific binding was determined in both assays, under similar conditions, as remaining in the presence of […] unlabeled haloperidol. Inhibition constants (Ki) were calculated from the IC50 values according to the method of Cheng and Prusoff.
# [2] = test system: S. typhimurium TA100; details: 7i 40 µg/plate
# [3] = test system: dizocilpine-induced learning deficits; assay: Dizocilpine-induced learning deficits, Y-maze spontaneous alternation; format: in vivo, male Swiss mice
# Experimental: (§1) The activity of compound 7i was evaluated in regard to its ability to reverse dizocilpine-induced learning deficits. Two behavioral tests were performed by Amylgen (Montferrier-sur-Lez, France) on male Swiss mice (aged 6–9 weeks). All compounds (7i and controls) were intraperitoneally injected.
# (§2) Animals were tested for spontaneous alternation performance in the Y-maze, an index of spatial working memory. Made of grey polyvinylchloride, the Y-maze has an arm which is 40 cm long, 13 cm high and 3 cm wide at the bottom and 10 cm wide at the top, converging at an equal angle. Each mouse was placed at the end of one arm and allowed to move freely through the maze during an 8-min session. The series of arm entries, including possible returns into the same arm, were checked visually. An alternation was defined as entries into all three arms on consecutive occasions. The number of maximum alternations was therefore the total number of arm entries minus two, and the percentage of alternation was calculated as: (actual alternations/maximum alternations) × 100. Parameters included the percentage of alternation (memory index) and the total number of arm entries (exploration index). Animals showing extreme behavior (alternation < 20% or >90% or number of arm entries < 10) are usually discarded from the calculations. […] Step-through latency (the latency in time spent to enter the dark compartment) and the number of vocalizations were recorded. […] Step-through latency was recorded up to 300 s. When either the mouse entered the dark compartment or 300 s had elapsed (they were therefore manually placed in it), escape latency (latency to exit from the dark compartment) was recorded with a value of up to 300 s. […]
# [4] = test system: dizocilpine-induced learning deficits; assay: Dizocilpine-induced learning deficits, step-through passive avoidance; format: in vivo, male Swiss mice
# Experimental: as §1, §2
# [5] = test system: HepG2; assay: Cytotoxicity analysis in HepG2 cells; format: cell-based, human; details: % at 10 µM
# Experimental: Cytotoxicity analysis was performed by Eurofins Cerep (Poitiers, France) according to [74]. Compound 7i was evaluated at 10 µM in the HepG2 cell line. Cell number, nuclear size, mitochondrial membrane potential, intracellular free calcium and membrane permeability were analyzed. % inhibition or % increase were calculated.
# [6] = test system: five bacterial strains; assay: Ames test, overall conclusion on five bacterial strains; details: ±S9, 0.37 to 40 µg/plate
# [7] = biological target: T2, S1R (Homo sapiens, UniProt Q99720); parameters: method as in PMID 28756263; details: selectivity index; cited from earlier work
# T2 construct: host or cells: Jurkat cell membranes
# T2 sequence (Q99720 whole entry): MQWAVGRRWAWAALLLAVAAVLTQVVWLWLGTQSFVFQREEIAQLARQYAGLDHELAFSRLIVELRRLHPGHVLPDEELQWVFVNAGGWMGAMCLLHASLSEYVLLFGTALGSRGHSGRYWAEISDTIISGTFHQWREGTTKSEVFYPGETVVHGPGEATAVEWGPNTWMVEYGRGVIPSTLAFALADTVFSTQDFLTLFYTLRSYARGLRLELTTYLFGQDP
# [8] = test system: SH-SY5Y; parameters: method as in PMID 28756263; details: cited from earlier work
# [9] = test system: S. typhimurium TA1535; details: 7i 40 µg/plate
# [10] = test system: S1R–BiP complex; assay: S1R-BiP dissociation assay in CHO cells (co-IP, ELISA); format: cell-based
# Experimental: The activity of compound 7i was evaluated in regard to its ability to dissociate the S1R–BiP complex. The S1R–BiP dissociation assay was performed by Amylgen (Montferrier-sur-Lez, France) as described in [13, 79]. Briefly, CHO cells were treated with test compounds for 30 min (37 °C). Crosslinking was performed with dithiobis succinimidyl propionate (DSP; Thermoscientific, Waltham, MA, USA). Lysis was performed after incubation for 15 min on ice. After centrifugation, supernatants were incubated overnight (4 °C) with the S1R antibody (Abcam, Cambridge, UK). Lysates were incubated with Sepharose Protein-A (Invitrogen). After the first centrifugation, the pellet was resuspended in radioimmunoprecipitation assay (RIPA) buffer. After a second centrifugation, the pellet was resuspended in 2× sample buffer/bMCE buffer. After the third centrifugation, supernatants were analyzed for BiP immunoreactivity (SEC343Mu ELISA, USCNK Life Sciences, Wuhan, China).
# [11] = +S9, positive control 2-anthramine 0.5
# [12] = −S9, positive control MNNG 0.25
# T1 sequence (Q5BJF2 whole entry): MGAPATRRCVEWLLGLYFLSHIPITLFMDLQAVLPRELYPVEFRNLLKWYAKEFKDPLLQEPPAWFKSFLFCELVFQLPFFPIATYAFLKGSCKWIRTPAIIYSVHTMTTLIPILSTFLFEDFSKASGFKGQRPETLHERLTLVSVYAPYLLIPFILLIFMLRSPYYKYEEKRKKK
compound,measurement,setting,value
O=C(NCCCNCc1ccccc1)c1ccc(Cl)cc1 [compound 7i-deMe],Ki,[1],> 1000 nM
CN(CCCNC(=O)c1ccc(Cl)cc1)Cc1ccccc1 [compound 7i],Ames TA100 +S9 (Mean revertants/well per title),[2]; [11],0.9
same,Ames TA100 −S9 (Mean revertants/well per title),[2]; [12],0.9
same,"dizocilpine-induced learning deficits, Y-maze spontaneous alternation","[3]; 0.5 mg/kg i.p., dizocilpine 0.15 mg/kg",significantly attenuated
same,beneficial effect in Y-maze with NE-100 treatment,[3]; plus NE-100 at 3 mg/kg i.p.,prevented
same,"dizocilpine-induced learning deficits, passive avoidance","[4]; 0.1 and 0.5 mg/kg i.p., dizocilpine 0.15 mg/kg",significantly attenuated
same,beneficial effect in passive avoidance with NE-100 treatment,[4]; plus NE-100 at 3 mg/kg i.p.,prevented
same,HepG2 Cell number,[5],−3%
same,HepG2 Intracell free calcium,[5],0%
same,HepG2 Membrane permeability,[5],0%
same,HepG2 Mitochondrial membrane potential,[5],5%
same,HepG2 Nuclear size,[5],9%
same,"mutagenic effects (Ames, conclusion)",[6],no mutagenic effects
same,Ki Ratio S2R/S1R,[7],60
same,Inhibition SH-SY5Y (% at 100 µM),[8]; 100 µM,28%
same,cytotoxicity,[8],no cytotoxicity
same,Ames TA1535 +S9 (Mean revertants/well per title),[9]; [11],0.9
same,Ames TA1535 −S9 (Mean revertants/well per title),[9]; [12],1.3
same,effect on S1R–BiP association,"[10]; 1 and 10 µM, 30-min incubation",significantly causes a dose-dependent dissociation
same,S1R functional activity,[10]; S1R–BiP dissociation blocked by NE-100,agonist capacity
same,effect on S1R–BiP dissociation in presence of NE-100,[10]; co-treatment with NE-100 (10 µM),blocked
same,S1R antagonist capacity (co-treatment with PRE-084),[10]; co-treatment with PRE-084 (10 µM),absence of antagonist capacity
